Experiment [1] concerns the target T1, cloned human P2Y1 receptors (Homo sapiens (Human), UniProt P47900). Kind of experiment: Binding Assay A: membrane binding assay, [33P] 2MeS-ADP, WGA FlashPlates. From the text:
A membrane binding assay was used to identify inhibitors of [^33P] […] The cDNA clone for human P2Y1 was obtained from Incyte Pharmaceuticals and its sequence confirmed by established techniques (for a compendium of techniques used see Ausubel, F. et al. Current Protocols in Molecular Biology, John Wiley and Sons, NY, N.Y. (1995)). The essential coding sequences were subcloned into pCDNA 3.1 (Invitrogen) to produce a P2Y1 expression construct. This construct was then transfected into the human embryonic kidney cell line HEK-293 and stable transfectants selected in GENETICIN® (G418 sulfate; Life Technologies). […] Membranes were prepared by growing HEK293 #49 in 150 mm dishes in DMEM/10% FBS in the presence of 1 mg/ml G418 until cells were 80-90% confluent. Plates were then washed with cold (4° C.) D-PBS twice and cells harvested by scraping into 10 mL D-PBS. Cells were pelleted by centrifugation (1,000 g, 10 min, 4° C.) and the resulting pellet resuspended in Lysis Buffer (10 mM Tris (7.4), 5 mM MgCl2 containing Complete protease inhibitor cocktail (Roche Cat #1873580) as recommended by the manufacturer). The suspension was then homogenized in a Dounce homogenizer (10-15 strokes; B pestle, on ice) and the homogenate spun at 1,000 g, 4° C., 5 min to pellet large debris. The supernatant was centrifuged at 150,000 g, 4° C., for 1 hour and the resulting membrane pellet resuspended in 0.5-1 mL of Buffer B (15 mM HEPES (7.4), 145 mM NaCl, 0.1 mM MgCl2, 5 mM EDTA, 5 mM KCl) and stored at −70° C. until used.
Binding reactions were performed in WGA FlashPlates (PerkinElmer Life Sciences, Cat # SMP105A) in a volume of 200 μL containing ˜45 fmol of P2Y1 receptor (5 μg of total protein), 0.5 nM [^33P] […] Reactions were allowed to proceed to completion at room temperature for 1 hour and then the aqueous solution aspirated. Plates were sealed and the residual [^33P] bound to the plate determined by scintillation counting.

Experiment [2] has as its system human platelet rich plasma (PRP). The experiment is described as follows: ADP induced platelet aggregation assay. It is filed as cell-based. The conditions noted are these: 5 min, read-out: PA IC50 (μM) @ 10 μM ADP. How it is done: ADP Induced Platelet Aggregation Assay
The ability of P2Y1 antagonists covered in the present invention to inhibit platelet aggregation induced by 10 μM ADP was tested using human platelet rich plasma (PRP) as described in Platelet Protocols: Research and Clinical Laboratory Procedures (White, M. M. et al., Academic Press (1999)). Human blood was collected in 30 μM (final concentration in blood) argatroban (GSK) as the anticoagulant at a ratio of 1 ml per 9 ml of blood. The PRP was isolated by centrifugation at 170 g for 12 minutes. The platelet poor plasma (PPP) was used as the blank for optical aggregometry. Compounds of the present invention in DMSO solution was preincubated with 250 μl PRP at 37° C. for 1 minute with stirring speed of 1000 rpm. Aggregation was initiated by addition of 2.5 μl of 1 mM ADP (Chrono-log, Havertown, Pa.) for a final ADP concentration of 10 uM. Platelet aggregation was monitored using Optical Aggregometer (Chrono-log, Havertown, Pa.) and the area under the curve (AUC) at 5 minute was measured. IC50 was calculated using vehicle control as 0% inhibition.
The platelet aggregation assay measures the in vitro antiplatelet activity of a compound in platelet rich plasma. The assay is sensitive to plasma protein binding, and is believed to be a better predictor of actual in vivo activity.

The target in experiment [3] is T1, cloned human P2Y1 receptors. Kind of experiment: Binding Assay B: Scintillation Proximity Assay (SPA) for P2Y1 binding. The protocol: Binding Assay B—Scintillation Proximity Assay (SPA) for P2Y1 Binding
A SPA membrane binding assay was used to identify inhibitors of [^33P] […] Binding reactions were performed in 384-well OptiPlates (PerkinElmer Life Sciences, Cat #6007299) in a volume of 50 μL containing ˜15 fmol of P2Y1 receptor (1.7 μg of total protein), 0.3 nM [^33P] […] Reactions were allowed to proceed to completion at room temperature for 1 hour followed by centrifugation of the plate for 5 min. About 40 μL of the aqueous solution was aspirated. Plates were sealed and the [^33P]

The mark [4] stands for this setting: read-out: P2Y1 Ki (nM), *Using binding assay A.
[5] abbreviates: starred values, FlashPlate, 0.5 nM [33P] 2MeS-ADP, Cheng-Prusoff, read-out: P2Y1 Ki (nM), *Using binding assay A.
Setting [6] is: SPA, 0.3 nM [33P] 2MeS-ADP, Cheng-Prusoff, read-out: P2Y1 Ki (nM) using binding assay B.

The record followed here is patent publication US9120798B2, “Amino-heteroaryl 7-hydroxy-spiropiperidine indolinyl antagonists of P2Y1 receptor” (priority 2012, dated 2015).

T1 sequence (P47900 whole entry): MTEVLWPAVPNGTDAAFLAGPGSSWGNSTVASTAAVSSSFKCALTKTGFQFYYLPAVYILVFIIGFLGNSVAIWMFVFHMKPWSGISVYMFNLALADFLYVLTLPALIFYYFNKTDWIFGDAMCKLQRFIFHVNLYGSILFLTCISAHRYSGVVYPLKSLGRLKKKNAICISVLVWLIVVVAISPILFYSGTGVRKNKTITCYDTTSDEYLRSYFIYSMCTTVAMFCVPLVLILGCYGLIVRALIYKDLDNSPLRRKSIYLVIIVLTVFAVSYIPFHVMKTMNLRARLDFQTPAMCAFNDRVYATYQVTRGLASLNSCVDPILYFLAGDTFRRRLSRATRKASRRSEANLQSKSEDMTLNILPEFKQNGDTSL

In the case of `CC(C)(C)CN1CCC2(CC1)CN(c1ccccc1Nc1nnc(-c3cccnc3)s1)c1c(O)ccc(Cl)c12` [Example 9, 4-Chloro-1′-neopentyl-1-(2-((5-(pyridin-3-yl)-1,3,4-thiadiazol-2-yl)amino)phenyl)spiro[indoline-3,4′-piperidin]-7-ol], the Ki in experiment [1] was determined as 24.3 nM. In addition, in experiment [2], the IC50 came out at 8.5 µM.
Turning to `CCOC(=O)c1sc(Nc2ccccc2N2CC3(CCN(CC(C)(C)C)CC3)c3ccccc32)nc1C(F)(F)F` [Comparator 2, reference compound], the inhibition constant (Ki) in experiment [1] (setting [4]) stood at 6.3 nM. The 50% inhibitory concentration (IC50) in experiment [2] was more than 40 µM.
For the compound `CC(C)(C)CN1CCC2(CC1)CN(c1ccccc1Nc1nnc(-c3cnccn3)s1)c1c(O)ccc(Cl)c12` [Example 12, 4-Chloro-1′-neopentyl-1-(2-((5-(pyrazin-2-yl)-1,3,4-thiadiazol-2-yl)amino)phenyl)spiro[indoline-3,4′-piperidin]-7-ol], in experiment [1] (setting [5]), the Ki worked out at 6.5 nM. Moreover, in experiment [2], the 50% inhibitory concentration (IC50) came to 0.9 µM.
In the case of `CC(C)(C)CN1CCC2(CC1)CN(c1ccccc1Nc1nc(C(F)(F)F)c(-c3ccccc3)s1)c1ccccc12` [Comparator 4, reference compound], the Ki in experiment [1] (setting [4]) came out at 7.9 nM. Also, in experiment [2], the IC50 was more than 40 µM.
For `COC(=O)c1sc(Nc2ccccc2N2CC3(CCN(CC(C)(C)C)CC3)c3ccccc32)nc1C` [Comparator 3, reference compound], in that order: 18 nM and more than 40 µM.
For `CC(C)(C)CN1CCC2(CC1)CCN(c1ccccc1Nc1nc3ccc(C(C)(C)C)cc3[nH]1)c1ccccc12` [Comparator 1, reference compound], in that order: 259 nM and more than 40 µM.
In the case of `CC(C)(C)CN1CCC2(CC1)CN(c1ccccc1Nc1nnc(-c3ccc(C(F)(F)F)cc3)s1)c1c(O)ccc(Cl)c12` [Example 7, 4-Chloro-1′-neopentyl-1-(2-(5-(4-(trifluoromethyl)phenyl)-1,3,4-thiadiazol-2-ylamino)phenyl)spiro[indoline-3,4′-piperidin]-7-ol], affinity in experiment [1] was put at a Ki of 3.3 nM. Moreover, the IC50 in experiment [2] worked out at 2.7 µM.
In the case of `Cc1cc(-c2nnc(Nc3ccccc3N3CC4(CCN(CC(C)(C)C)CC4)c4c(Cl)ccc(O)c43)s2)n(C)n1` [Example 13, 4-Chloro-1-(2-((5-(1,3-dimethyl-1H-pyrazol-5-yl)-1,3,4-thiadiazol-2-yl)amino)phenyl)-1′-neopentylspiro[indoline-3,4′-piperidin]-7-ol], in experiment [1] (setting [5]), the Ki was 6.6 nM. Besides, the IC50 in experiment [2] worked out at 0.9 µM.
For the compound `CC(C)(C)CN1CCC2(CC1)CN(c1ccccc1Nc1nnc(C3CCOCC3)s1)c1c(O)ccc(Cl)c12` [Example 14, 4-Chloro-1′-neopentyl-1-(2-((5-(tetrahydro-2H-pyran-4-yl)-1,3,4-thiadiazol-2-yl)amino)phenyl)spiro[indoline-3,4′-piperidin]-7-ol], the Ki in experiment [1] (setting [4]) was found to be 155 nM. Besides, the IC50 in experiment [2] was determined as 23 µM.
In the case of `CC(C)(C)CN1CCC2(CC1)CN(c1ccccc1Nc1nnc(-c3ccc(C(F)(F)F)nc3)s1)c1c(O)ccc(Cl)c12` [Example 15, 4-Chloro-1′-neopentyl-1-(2-((5-(6-(trifluoromethyl)pyridin-3-yl)-1,3,4-thiadiazol-2-yl)amino)phenyl)spiro[indoline-3,4′-piperidin]-7-ol], the inhibitory constant (Ki) in experiment [1] is 5.7 nM. In addition, the IC50 in experiment [2] worked out at 1.6 µM.
In turn, `CC(C)(C)CN1CCC2(CC1)CN(c1ccccc1Nc1nnc(-c3ccncc3)s1)c1c(O)ccc(Cl)c12` [Example 10, 4-Chloro-1′-neopentyl-1-(2-((5-(pyridin-4-yl)-1,3,4-thiadiazol-2-yl)amino)phenyl)spiro[indoline-3,4′-piperidin]-7-ol] came in with a Ki in experiment [3] of 40.2 nM. Besides, in experiment [2], the IC50 stood at 11.4 µM.
For `CC(C)(C)CN1CCC2(CC1)CN(c1ccccc1Nc1nnc(-c3ccc(OC(F)(F)F)cc3)s1)c1c(O)ccc(F)c12` [Example 30, 4-fluoro-1′-neopentyl-1-(2-((5-(4-(trifluoromethoxy)-phenyl)-1,3,4-thiadiazol-2-yl)amino)phenyl)spiro[indoline-3,4′-piperidin]-7-ol], in that order: 5 nM and 2 µM.
`CC(C)(C)CN1CCC2(CC1)CN(c1ccccc1Nc1ccc(C(F)(F)F)cn1)c1c(O)ccc(Cl)c12` [Example 42, 4-Chloro-1′-neopentyl-1-(2-(5-(trifluoromethyl)pyridin-2-ylamino)phenyl)spiro[indoline-3,4′-piperidin]-7-ol]: affinity in experiment [3] was put at a Ki of 22 nM. Further, in experiment [2], the IC50 worked out at 22.8 µM.
As for `CC(C)(C)CN1CCC2(CC1)CN(c1ccccc1Nc1nnc(-c3ccc(C(C)(C)C)cc3)s1)c1c(O)ccc(C(F)(F)F)c12` [Example 2, 1-(2-(5-(4-tert-Butylphenyl)-1,3,4-thiadiazol-2-ylamino)phenyl)-1′-neopentyl-4-(trifluoromethyl)spiro[indoline-3,4′-piperidin]-7-ol], in experiment [3] (setting [6]), the Ki is 26 nM. Also, the IC50 in experiment [2] is 0.9 µM.
For `CC(C)(C)CN1CCC2(CC1)CN(c1ccccc1Nc1nnc(-c3cccc(Cl)c3)s1)c1c(O)ccc(Cl)c12` [Example 20, 4-chloro-1-(2-((5-(3-chloro-phenyl)-1,3,4-thiadiazol-2-yl)amino)phenyl)-1′-neopentylspiro[indoline-3,4′-piperidin]-7-ol], in that order: 16 nM and 2.6 µM.
On to `CC(C)(C)CN1CCC2(CC1)CN(c1ccccc1Nc1nnc(-c3ccc(C(F)(F)F)cc3)s1)c1c(O)ccc(C#N)c12` [Example 45, 7-Hydroxy-1′-neopentyl-1-(2-(5-(4-(trifluoromethyl)phenyl)-1,3,4-thiadiazol-2-ylamino)phenyl)spiro[indoline-3,4′-piperidine]-4-carbonitrile], for which the affinity in experiment [3], expressed as Ki, was 3 nM. In experiment [2], the IC50 was 3.5 µM.
For `CC(C)(C)CN1CCC2(CC1)CN(c1ccccc1Nc1cc(-c3ccc(C(F)(F)F)cc3)on1)c1c(O)ccc(Cl)c12` [Example 37, 4-Chloro-1′-neopentyl-1-(2-(5-(4-(trifluoromethyl)phenyl)isoxazol-3-ylamino)phenyl)spiro[indoline-3,4′-piperidin]-7-ol], in that order: 60 nM and 9.9 µM.
For `CC(C)(C)CN1CCC2(CC1)CN(c1ccccc1Nc1nnc(-c3cccc(F)c3)s1)c1c(O)ccc(Cl)c12` [Example 29, 4-chloro-1-(2-((5-(3-fluoro-phenyl)-1,3,4-thiadiazol-2-yl)amino)phenyl)-1′-neopentylspiro[indoline-3,4′-piperidin]-7-ol], in that order: 23 nM and 2.4 µM.
